Active and inactive are the calls of the source. How the calls were made is not given here.

The test system of the data set is CCRIS mutagenicity, Ames/micronucleus/aberration tests. Description: CCRIS mutagenicity studies.
The mark [1] stands for this setting: Test System: AMES SALMONELLA TYPHIMURIUM, Strain/Indicator: TA98, Metabolic Activation: NONE, Method: PREINCUBATION
Setting [2] is: Test System: AMES SALMONELLA TYPHIMURIUM, Strain/Indicator: TA98, Metabolic Activation: NONE, Method: STANDARD PLATE.
Where [3] appears, read: Test System: AMES SALMONELLA TYPHIMURIUM, Strain/Indicator: TA100, Metabolic Activation: NONE, Method: PREINCUBATION
Setting [4] is: Test System: AMES SALMONELLA TYPHIMURIUM, Strain/Indicator: TA100, Metabolic Activation: NONE, Method: STANDARD PLATE.

With `O=[N+]([O-])c1ccc(Cl)c([N+](=O)[O-])c1`, the mutagenic call (Test System: AMES SALMONELLA TYPHIMURIUM, Strain/Indicator: TA98(1,8-DNP6), Metabolic Activation: NONE, Method: PREINCUBATION) was “active; positive”; the mutagenic call (Test System: AMES SALMONELLA TYPHIMURIUM, Strain/Indicator: TA98(NR), Metabolic Activation: NONE, Method: PREINCUBATION) is “active; positive”; the mutagenic call under setting [1] was “active; positive”; the mutagenic call under setting [2] was “active; positive”; the mutagenic call (Test System: AMES SALMONELLA TYPHIMURIUM, Strain/Indicator: TA98, Metabolic Activation: RAT LIVER S-9, AROCLOR 1254 (10%), Method: STANDARD PLATE) was “active; positive”; the mutagenic call (Test System: AMES SALMONELLA TYPHIMURIUM, Strain/Indicator: TA98, Metabolic Activation: RAT, LIVER, S-9, KANECHLOR 500, Method: PREINCUBATION) is “active; positive”. Also, the mutagenic call (Test System: AMES SALMONELLA TYPHIMURIUM, Strain/Indicator: TA98NR/1,8-DNP6, Metabolic Activation: NONE, Method: STANDARD PLATE) is “inactive; negative”; the mutagenic call (Test System: AMES SALMONELLA TYPHIMURIUM, Strain/Indicator: TA98NR, Metabolic Activation: NONE, Method: STANDARD PLATE) is “active; positive”; the mutagenic call (Test System: AMES SALMONELLA TYPHIMURIUM, Strain/Indicator: TA100(NR), Metabolic Activation: NONE, Method: PREINCUBATION) is “active; positive”; the mutagenic call (Test System: AMES SALMONELLA TYPHIMURIUM, Strain/Indicator: TA100/GSH-, Metabolic Activation: NONE, Method: PREINCUBATION) was “active; positive”; the mutagenic call under setting [3] was “active; positive”; the mutagenic call under setting [4] is “active; positive”. Further, the mutagenic call is, setting by setting: (Test System: AMES SALMONELLA TYPHIMURIUM, Strain/Indicator: TA100, Metabolic Activation: RAT, LIVER, S-9, KANECHLOR 500, Method: PREINCUBATION) “inactive; negative”; (Test System: AMES SALMONELLA TYPHIMURIUM, Strain/Indicator: YG1021, Metabolic Activation: NONE, Method: STANDARD PLATE) “active; positive”; (Test System: AMES SALMONELLA TYPHIMURIUM, Strain/Indicator: YG1024, Metabolic Activation: NONE, Method: STANDARD PLATE) “active; positive”; (Test System: Ames Salmonella typhimurium, Strain/Indicator: TA98, Metabolic Activation: None, Method: Preincubation) “active; positive”; (Test System: Ames Salmonella typhimurium, Strain/Indicator: TA98, Metabolic Activation: Rat, Liver, S9, Sodium phenobarbital and 5,6-benzoflavone (10%), Method: Preincubation) “active; positive”; (Test System: Ames Salmonella typhimurium, Strain/Indicator: TA100, Metabolic Activation: None, Method: Preincubation) “active; positive”. For the same compound, the mutagenic call runs as follows: (Test System: Ames Salmonella typhimurium, Strain/Indicator: TA100, Metabolic Activation: Rat, Liver, S9, Sodium phenobarbital and 5,6-benzoflavone (10%), Method: Preincubation) “active; positive”; (Test System: Ames Salmonella typhimurium, Strain/Indicator: TA1535, Metabolic Activation: None, Method: Preincubation) “active; positive”; (Test System: Ames Salmonella typhimurium, Strain/Indicator: TA1535, Metabolic Activation: Rat, Liver, S9, Sodium phenobarbital and 5,6-benzoflavone (10%), Method: Preincubation) “active; positive”; (Test System: Ames Salmonella typhimurium, Strain/Indicator: TA1537, Metabolic Activation: Rat, Liver, S9, Sodium phenobarbital and 5,6-benzoflavone (10%), Method: Preincubation) “active; positive”.
With `C#CC1(O)CC[C@H]2[C@@H]3CCC4=CCCC[C@@H]4[C@H]3CC[C@@]21C` (some centres not stated), the mutagenic call (End Point: IN VIVO CHROMOSOMAL ABERRATIONS, Test System: BONE MARROW CELLS, Species: MOUSE, Strain/Sex: SWISS ALBINO/FEMALE, Route: IP INJECTION) was “active; positive (structural changes)”.
As for `CCOC(=O)[C@H]1O[C@@H]1C(=O)N[C@@H](CC(C)C)C(=O)NCCC(C)C`, the mutagenic call reads like this: under setting [1], “inactive; negative”; under setting [2], “inactive; negative”; (Test System: AMES SALMONELLA TYPHIMURIUM, Strain/Indicator: TA98, Metabolic Activation: RAT, LIVER, S-9, Method: PREINCUBATION) “inactive; negative”; (Test System: AMES SALMONELLA TYPHIMURIUM, Strain/Indicator: TA98, Metabolic Activation: RAT, LIVER, S-9, Method: STANDARD PLATE) “inactive; negative”; under setting [3], “inactive; negative”; under setting [4], “inactive; negative”. Further, the mutagenic call runs as follows: (Test System: AMES SALMONELLA TYPHIMURIUM, Strain/Indicator: TA100, Metabolic Activation: RAT, LIVER, S-9, Method: PREINCUBATION) “inactive; negative”; (Test System: AMES SALMONELLA TYPHIMURIUM, Strain/Indicator: TA100, Metabolic Activation: RAT, LIVER, S-9, Method: STANDARD PLATE) “inactive; negative”; (Test System: AMES SALMONELLA TYPHIMURIUM, Strain/Indicator: TA1535, Metabolic Activation: NONE, Method: STANDARD PLATE) “inactive; negative”; (Test System: AMES SALMONELLA TYPHIMURIUM, Strain/Indicator: TA1535, Metabolic Activation: RAT, LIVER, S-9, Method: STANDARD PLATE) “inactive; negative”; (Test System: AMES SALMONELLA TYPHIMURIUM, Strain/Indicator: TA1537, Metabolic Activation: NONE, Method: STANDARD PLATE) “inactive; negative”; (Test System: AMES SALMONELLA TYPHIMURIUM, Strain/Indicator: TA1537, Metabolic Activation: RAT, LIVER, S-9, Method: STANDARD PLATE) “inactive; negative”. Also, the mutagenic call was “inactive; negative” (Test System: E. COLI, Strain/Indicator: WP2 UVRA, Metabolic Activation: NONE, Method: STANDARD PLATE) and “inactive; negative” (Test System: E. COLI, Strain/Indicator: WP2 UVRA, Metabolic Activation: RAT, LIVER, S-9, Method: STANDARD PLATE).
For the compound `Nc1cccc2cccnc12`, the mutagenic call is, setting by setting: under setting [1], “active; positive”; (Test System: AMES SALMONELLA TYPHIMURIUM, Strain/Indicator: TA98, Metabolic Activation: RAT, LIVER, S-9, KANECHLOR 500 OR PHENOBARBITAL AND BETA-NAPHTHOFLAVONE, Method: PREINCUBATION) “active; positive”; under setting [3], “active; positive”; (Test System: AMES SALMONELLA TYPHIMURIUM, Strain/Indicator: TA100, Metabolic Activation: RAT, LIVER, S-9, KANECHLOR 500 OR PHENOBARBITAL AND BETA-NAPHTHOFLAVONE, Method: PREINCUBATION) “active; positive”; (Test System: AMES SALMONELLA TYPHIMURIUM, Strain/Indicator: TA100, Metabolic Activation: S-9, Method: PREINCUBATION) “active; positive”.
